Test results from patent US20240390383A1, “DIOXAZINES AND THEIR USE IN TREATMENT OF GBA-RELATED DISEASES” (ZEVRA DENMARK A/S, priority 2021, published 2024).

Molecular target: T1, GCase (GBA) in human fibroblast cell line GM10915 harboring the L444P GBA mutation (Homo sapiens, UniProt P04062, L483P)
T1 construct: Human fibroblast cell line GM10915 harboring the L444P GBA mutation; host or cells: GM10915 human fibroblasts
T1 sequence (P04062 40-536 L483P): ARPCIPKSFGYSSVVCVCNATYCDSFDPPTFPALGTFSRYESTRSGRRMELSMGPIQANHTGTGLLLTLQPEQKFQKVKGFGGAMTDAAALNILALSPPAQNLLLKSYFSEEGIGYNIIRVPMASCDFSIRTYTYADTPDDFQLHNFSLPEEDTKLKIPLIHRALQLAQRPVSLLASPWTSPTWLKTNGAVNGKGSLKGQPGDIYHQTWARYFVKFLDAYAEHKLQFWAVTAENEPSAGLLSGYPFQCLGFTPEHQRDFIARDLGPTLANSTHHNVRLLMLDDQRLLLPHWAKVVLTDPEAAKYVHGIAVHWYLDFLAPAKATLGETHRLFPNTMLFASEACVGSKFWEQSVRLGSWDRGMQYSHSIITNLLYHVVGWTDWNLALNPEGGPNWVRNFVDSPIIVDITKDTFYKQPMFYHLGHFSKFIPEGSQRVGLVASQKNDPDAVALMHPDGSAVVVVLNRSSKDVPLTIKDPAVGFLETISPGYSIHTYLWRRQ
Test: GCase activity assay (4-MUG substrate, normalised to crystal violet staining) in L444P GBA fibroblasts
Format: cell-based
Conditions: 5 days exposure; for GBA EC1.5: concentration giving 150% GCase activity (1.5-fold induction), 8-point dose range
Summary of the method: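 Patient fibroblasts GM10915 (L444P GBA) exposed to compounds for five days over an 8-point range, with fresh dosing every 2–3 days. Intact-cell GCase measured with 2.5 mM 4-MUG at pH 4.0 for 23 h at 37 °C (ex/em 365/445 nm), normalised to crystal violet, as % of PBS basal; Emax is the maximum reached.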

[1] = maximum percent GCase activity relative to untreated cells in the dose range tested

Compound | GBA EC1.5 [µM] | Emax [1] [%] | GBA Emax [1] [%]
C1CCN(CC2CON=C(C34CCN(CC3)CC4)O2)CC1 (racemic) [compound 642, rac-5-(piperidin-1-ylmethyl)-3-(quinuclidin-4-yl)-5,6-dihydro-1,4,2-dioxazine] | 3 | 282 | 
CN1CCCC(C2=NOCC(CN3CCCCC3)O2)C1 (racemic) [compound 648, rac-3-(1-methylpiperidin-3-yl)-5-(piperidin-1-ylmethyl)-5,6-dihydro-1,4,2-dioxazine] | 4.3 | 201 | 
COCCC1(C2=NOCC(CN3CCCCC3)O2)CCNC1 (racemic) [compound 685, rac-3-(3-(2-methoxyethyl)pyrrolidin-3-yl)-5-(piperidin-1-ylmethyl)-5,6-dihydro-1,4,2-dioxazine] | 12 | 270 | 
N[C@@H]1CN[C@H](C2=NOCC(CN3CCCCC3)O2)C1 (stereo partly shown) [compound 596] | 50 | 105 | 
CN(C)CC1CON=C(C2CCN(C)C2)O1 (stereo not shown) [compound 605] | 45 | 148 | 
C1CCN(CC2CON=C([C@@]34CN[C@@H](CO3)C4)O2)CC1 (mixture of isomers) [compound 490, rac-(1R,4R)-1-(5-(piperidin-1-ylmethyl)-5,6-dihydro-1,4,2-dioxazin-3-yl)-2-oxa-5-azabicyclo[2.2.1]heptane] | 11 | 215 | 
CCCCCO[C@H]1CC[C@H](NC(=O)c2cnn3c(C)cc(C)nc23)CC1 [LTI-291, reference compound] | 112 |  | 
C1CCN(CC2CON=C(C3CN4CCC3CC4)O2)CC1 (racemic) [compound 644, rac-5-(piperidin-1-ylmethyl)-3-(quinuclidin-3-yl)-5,6-dihydro-1,4,2-dioxazine] | 5 | 264 | 
C[C@]1(C2=NOC[C@@H](CN3CCCCC3)O2)CCCNC1 [compound 884] | 6 | 207 | 

Second part, the molecule after the results:

GBA EC1.5 [µM] | Emax [1] [%] | GBA Emax [1] [%] | Compound
13 | 136 |  | Cc1cncc(CC2(C3=NOCC(CN4CCCCC4)O3)CCNCC2)c1 (stereo not shown) [compound 520]
50 | 111 |  | CN1CCCC1C1=NOCC(CN2CCCCC2)O1 (stereo not shown) [compound 695]
14 | 185 |  | C[C@@H]1CNC[C@H]1C1=NOCC(CN2CCCCC2)O1 (relative stereo) [compound 551, rac-rel-trans-3-((3R,4R)-4-methylpyrrolidin-3-yl)-5-(piperidin-1-ylmethyl)-5,6-dihydro-1,4,2-dioxazine]
5 |  | 204 | C1CCN(CC2CON=C([C@]34CCC[C@H]3NCC4)O2)CC1 (relative stereo) [compound 469, rac-3-rel-trans-((3aS,6aR)-hexahydrocyclopenta[b]pyrrol-3a(1H)-yl)-5-(piperidin-1-ylmethyl)-5,6-dihydro-1,4,2-dioxazine]
11 | 247 |  | CN1CCC(C2=NOCC(CN3CCCCC3)O2)C1 (stereo not shown) [compound 629]
4 | 181 |  | C1CCN(CCC2=NOCC(CN3CCCCC3)O2)CC1 (racemic) [compound 816, rac-3-(2-(piperidin-1-yl)ethyl)-5-(piperidin-1-ylmethyl)-5,6-dihydro-1,4,2-dioxazine]
10 | 283 |  | CC1(C2=NOCC(CN3CCCCC3)O2)CCNC1 (racemic) [compound 465, rac-3-(3-methylpyrrolidin-3-yl)-5-(piperidin-1-ylmethyl)-5,6-dihydro-1,4,2-dioxazine]
26 | 187 |  | C1CCN(CC2CON=C(C34CNC(C3)C4)O2)CC1 (racemic) [compound 527, rac-3-(2-azabicyclo[2.1.1]hexan-4-yl)-5-(piperidin-1-ylmethyl)-5,6-dihydro-1,4,2-dioxazine]
50 | 123 |  | c1cc2n(n1)CCC(C1=NOCC(CN3CCCCC3)O1)C2 (stereo not shown) [compound 656]
1 | 147 |  | CC(C)c1ccc(CC2(C3=NOCC(CN4CCCCC4)O3)CCNCC2)cn1 (stereo not shown) [compound 538]
